Seven molecules from patent publication US20250230193A1, “CYCLIC COMPOUND HAVING SELECTIVE KRAS INHIBITORY EFFECT ON HRAS AND NRAS” (CHUGAI SEIYAKU KABUSHIKI KAISHA, priority 2022, published 2025) can be followed below.

Molecules are shown by their SMILES. Where a SMILES comes first, the peptide text is derived from it. Bridges are numbered along the chain shown (N, C = ends). [ ]: non-standard residue; d: D form. hPhe(3-Cl-4-CF3) = N[C@@H](CCc1ccc(C(F)(F)F)c(Cl)c1)C(=O)O; NPrPhe(4-CF3) = CCCN[C@@H](Cc1ccc(C(F)(F)F)cc1)C(=O)O; NMeGly(cPent) = CN[C@H](C(=O)O)C1CCCC1; NMeL = CN[C@@H](CC(C)C)C(=O)O; Ac5c = NC1(C(=O)O)CCCC1; Sar = CNCC(=O)O

Assay [1] concerns the target GDP-bound NRAS wild-type protein (Homo sapiens, UniProt P01111). The assay can be described thus: Binding to NRAS by surface plasmon resonance (SPR), Single Cycle Kinetics. For orientation: SPR reads the build-up and loss of mass on a sensor chip optically.
Assay [2] concerns the target GDP-bound HRAS wild-type protein (Homo sapiens, UniProt P01112). The assay can be described thus: Binding to HRAS by surface plasmon resonance (SPR), Single Cycle Kinetics.
Where [3] appears, read: KD ratio, GDP-bound NRAS wild-type vs GDP-bound KRAS wild-type, SPR.
[4] abbreviates: KD ratio, GDP-bound HRAS wild-type vs GDP-bound KRAS wild-type, SPR.

GDP-bound NRAS wild-type protein, sequence (P01111 whole entry): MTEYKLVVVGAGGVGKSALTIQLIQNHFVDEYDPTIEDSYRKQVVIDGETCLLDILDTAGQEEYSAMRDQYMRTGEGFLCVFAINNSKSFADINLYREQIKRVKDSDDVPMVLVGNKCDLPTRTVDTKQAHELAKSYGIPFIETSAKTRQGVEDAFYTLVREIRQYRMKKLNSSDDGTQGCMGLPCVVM
GDP-bound HRAS wild-type protein, sequence (P01112 whole entry): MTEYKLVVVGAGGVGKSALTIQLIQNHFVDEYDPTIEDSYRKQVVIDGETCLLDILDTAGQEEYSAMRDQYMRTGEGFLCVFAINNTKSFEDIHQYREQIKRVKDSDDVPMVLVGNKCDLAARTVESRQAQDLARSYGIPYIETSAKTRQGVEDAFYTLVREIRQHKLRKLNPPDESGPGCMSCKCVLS

`CCO[C@@H]1C[C@H]2C(=O)NC3(CCC3)C(=O)N(C)[C@@H](C(CC)CC)C(=O)N(C)[C@H](C(=O)N(C)C)CC(=O)N(C)[C@@H](CC)C(=O)N[C@@H]([C@@H](C)CC)C(=O)N(C)CC(=O)N(C)[C@H]3C/C=C\CCN(C3=O)[C@@H](Cc3ccc(C(F)(F)F)cc3)C(=O)N(C)CC(=O)N[C@@H](CCc3cc(F)c(C(F)(F)F)c(F)c3)C(=O)N2C1` [PP1200]: in assay [1] (setting [3]), the “NRAS/KRAS (ratio of KD value with respect to NRAS to KD value with respect to KRAS)” value is listed as “AA (a compound having 20 or more is denoted as AA)”. Also, the “HRAS/KRAS (ratio of KD value with respect to HRAS to KD value with respect to KRAS)” value in assay [2] (setting [4]) was “A (a compound having 10 or more and less than 20 is denoted as A)”.
`CCCN1C(=O)CN(C)C(=O)CN(C)C(=O)[C@H]([C@@H](C)CC)NC(=O)[C@H](CC(C)C)N(C)C(=O)C[C@@H](C(=O)N(C)C)NC(=O)[C@H](C2CCCC2)N(C)C(=O)C2(CCCC2)NC(=O)[C@@H]2CCCN2C(=O)[C@H](CCc2ccc(C(F)(F)F)c(Cl)c2)NC(=O)CN(C)C(=O)[C@@H]1Cc1ccc(C(F)(F)F)cc1` [PP0355] ([NMeL]I[Sar][Sar][NPrPhe(4-CF3)][Sar][hPhe(3-Cl-4-CF3)]P[Ac5c][NMeGly(cPent)]D-NMe2; lactam N-11): the “NRAS/KRAS (ratio of KD for GDP-bound NRAS wild-type to KD for KRAS)” value in assay [1] (KD ratio NRAS/KRAS, SPR) was “B (a compound having 3 or more and less than 10 is denoted as B)”. Further, in assay [2] (KD ratio HRAS/KRAS, SPR), the “HRAS/KRAS (ratio of KD for GDP-bound HRAS wild-type to KD for KRAS)” value was “B (a compound having 3 or more and less than 10 is denoted as B)”.
Regarding `CC[C@H](C)[C@@H]1NC(=O)[C@H](C(C)C)N(C)C(=O)C[C@@H](C(=O)N(C)CC)N(C)C(=O)[C@H](C2CCCC2)N(C)C(=O)C2(CC(C)(C)C2)NC(=O)[C@@H]2C[C@H](C)CN2C(=O)[C@H](CCc2ccc(C(F)(F)F)c(OC)c2)NC(=O)CN(C)C(=O)[C@H](Cc2ccc(C(F)(F)F)cc2)N2CC/C=C\C[C@@H](C2=O)N(C)C(=O)CN(C)C1=O` [PP2003], the “NRAS/KRAS (ratio of KD value for NRAS to KD value for KRAS)” value in assay [1] (setting [3]) is “A (a compound having 10 or more and less than 20 is denoted as A)”. Besides, the “HRAS/KRAS (ratio of KD value for HRAS to KD value for KRAS)” value in assay [2] (setting [4]) is “B (a compound having 3 or more and less than 10 is denoted as B)”.
For `CCC[C@H]1C(=O)N[C@@H]([C@@H](C)CC)C(=O)N(C)CC(=O)N(C)[C@H]2C/C=C\CCN(C2=O)[C@@H](Cc2ccc(C(F)(F)F)cc2)C(=O)N(C)CC(=O)N[C@@H](CCc2ccc3ccn(C)c3c2)C(=O)N2C[C@H](OCC)C[C@H]2C(=O)NC2(CC(C)(C)C2)C(=O)N(C)[C@@H](C(CC)CC)C(=O)N(C)[C@H](C(=O)N(C)C)CC(=O)N1C` [PP2912], in assay [1] (KD ratio NRAS/KRAS, class symbols), the “NRAS/KRAS (ratio of KD value with respect to GDP-bound NRAS wild-type protein to KD value with respect to KRAS)” value is listed as “AA (a compound having 20 or more is denoted as AA)”. The “HRAS/KRAS (ratio of KD value with respect to GDP-bound HRAS wild-type protein to KD value with respect to KRAS)” value in assay [2] (KD ratio HRAS/KRAS, class symbols) was “A (a compound having 10 or more and less than 20 is denoted as A)”.
Regarding `CCO[C@@H]1C[C@H]2C(=O)NC3(CCC3)C(=O)N(C)[C@@H](C3CCCC3)C(=O)N(C)[C@H](C(=O)N3C4CCC3COC4)CC(=O)N(C)[C@@H](CC)C(=O)N[C@@H]([C@@H](C)CC)C(=O)N(C)CC(=O)N(C)[C@H]3C/C=C\CCN(C3=O)[C@@H](Cc3ccc(C(F)(F)F)cc3)C(=O)N(C)CC(=O)N[C@@H](CCc3cc(F)c(C(F)(F)F)c(F)c3)C(=O)N2C1` [PP1093], in assay [1] (setting [3]), the “NRAS/KRAS (ratio of KD value with respect to NRAS to KD value with respect to KRAS)” value is “AA (a compound having 20 or more is denoted as AA)”. For the same molecule, the “HRAS/KRAS (ratio of KD value with respect to HRAS to KD value with respect to KRAS)” value in assay [2] (setting [4]) is “A (a compound having 10 or more and less than 20 is denoted as A)”.
With `CCOC1CC2C(=O)NC3(CCC3)C(=O)N(C)C(C(C)CC)C(=O)N(C)[C@H](C(=O)N3CCOCC3)CC(=O)N(C)[C@@H](CC(C)C)C(=O)N[C@@H]([C@@H](C)CC)C(=O)N(C)CC(=O)N(C)[C@H]3CCCCN(C3=O)[C@@H](Cc3ccc(C(F)(F)F)cc3)C(=O)N(C)CC(=O)N[C@@H](CCc3cc(F)c(C(F)(F)F)c(F)c3)C(=O)N2C1` (some centres unmarked) [PP0812], the “NRAS/KRAS (ratio of KD value with respect to NRAS to KD value with respect to KRAS)” value in assay [1] (setting [3]) was “B (a compound having 3 or more and less than 10 is denoted as B)”. In addition, the “HRAS/KRAS (ratio of KD value with respect to HRAS to KD value with respect to KRAS)” value in assay [2] (setting [4]) was “B (a compound having 3 or more and less than 10 is denoted as B)”.
`CC[C@H](C)[C@@H]1NC(=O)[C@H](CC(C)C)N(C)C(=O)C[C@@H](C(=O)N2CCOCC2)N(C)C(=O)[C@H](C2CCCC2)N(C)C(=O)C2(CCC2)NC(=O)[C@@H]2[C@@H](OCC(F)F)CCN2C(=O)[C@H](CCc2cc(F)c(C(F)(F)F)c(F)c2)NC(=O)CN(C)C(=O)[C@H](Cc2ccc(C(F)(F)F)cc2)N2CCCCC[C@@H](C2=O)N(C)C(=O)CN(C)C1=O` [PP1012]: the “NRAS/KRAS (ratio of KD value with respect to NRAS to KD value with respect to KRAS)” value in assay [1] (setting [3]) is “A (a compound having 10 or more and less than 20 is denoted as A)”. For the same molecule, in assay [2] (setting [4]), the “HRAS/KRAS (ratio of KD value with respect to HRAS to KD value with respect to KRAS)” value was “B (a compound having 3 or more and less than 10 is denoted as B)”.
